Reference: patent publication US10464925B2, “Methods to induce targeted protein degradation through bifunctional molecules” (Dana-Farber Cancer Institute, Inc., priority 2015, dated 2019)
Read-outs that look alike come from different tables or passages of the source.

Tests used:
CUTL1 = test: Cell viability, ATPlite 48 hours, CUTLL1; assay type: cell-based; settings: CUTL1 cells
Procedure: (§1) ATP content was measured as a surrogate for cellular viability using ATPlite (Promega).

DND41 = test: Cell viability, ATPlite 48 hours, DND41; assay type: cell-based; settings: DND41 cells
Procedure: as §1

MOLT4 = test: Cell viability, ATPlite 48 hours, MOLT4; assay type: cell-based; settings: Homo sapiens, MOLT-4; MOLT4 cells
Procedure: as §1

Calu6 = test: Cell viability, ATPlite 72 hours; assay type: cell-based; settings: Homo sapiens, Calu-6
Procedure: Various cell lines were seeded into 384-well tissue culture-treated plates at a density of 2,000 cells per well in a volume of 50 μL/well. […] After 72 hours of incubation, cells were analyzed for cell viability using the ATPlite (PerkinElmer) Luminescence Assay Kit per the manufacturer's instructions, using ATP content as a surrogate for viable cell number. Luminescence was read on an EnVision 2104 Multilabel Plate Reader (PerkinElmer).

NGP = test: Cell viability, ATPlite 72 hours; assay type: cell-based; settings: NGP; for IC50: read-out: IC50 (nM) NGP
CCF-STTG1 = test: Cell viability, ATPlite 72 hours; assay type: cell-based; settings: Homo sapiens
PANC032 = test: cells; settings: 72 h
KP2 = test: cells; settings: 72 h
ASPC1 = test: cells; settings: Homo sapiens, ASPC1, 72 h
A549 = test: cells; settings: Homo sapiens, A549, 72 h
NMC-G1 = test: cells; settings: 72 h
HCT116 = test: cells; settings: Homo sapiens, HCT-116, 72 h
MC116 = test: cells; settings: Homo sapiens, MC116, 72 h
NCI-H460 = test: cells; settings: Homo sapiens, NCI-H460, 72 h
NCI-H838 = test: cells; settings: Homo sapiens, NCI-H838, 72 h
LCLC-103H = test: cells; settings: Homo sapiens, 72 h
SW1783 = test: cells; settings: Homo sapiens, SW1783, 72 h
MKN45 = test: cells; settings: Homo sapiens, MKN-45, 72 h
Cl-1 = test: cells; settings: 72 h
HCC1315 = test: cells; settings: 72 h
KARPAS = test: cells; settings: 72 h
MDA-MB-231 = test: cells; settings: Homo sapiens, MDA-MB-231, 72 h
MDA-MB-436 = test: cells; settings: Homo sapiens, MDA-MB-436, 72 h
SBC-5 = test: cells; settings: Homo sapiens, SBC-5, 72 h
SKMEL28 = test: cells; settings: Homo sapiens, SK-MEL-28, 72 h
SUM149 = test: cells; settings: SUM149, 72 h
SUM149R = test: cells; settings: 72 h
SUM159 = test: cells; settings: SUM159, 72 h
SUM159R = test: cells; settings: 72 h
SUM185 = test: cells; settings: 72 h
T47D = test: cells; settings: Homo sapiens, 72 h

## Cc1sc2c(c1C)C(c1ccc(Cl)cc1)=N[C@@H](CC(=O)NCCCCCCCCNC(=O)COc1cccc3c1C(=O)N(C1CCC(=O)NC1=O)C3=O)c1nnc(C)n1-2 (some centres unmarked) [dBET6]
CUTL1
  IC50: 70.8 nM
DND41
  IC50: 34.4 nM
MOLT4
  IC50: 65.3 nM
Calu6
  Emax: 51.7%
  IC50: 233 nM
NGP; 72 h, read-out: Emax (%) NGP
  Emax: 21.9%
NGP; 72 h
  IC50: 188 nM
NGP
  IC50: 188 nM
CCF-STTG1
  Emax: 45.8%
PANC032; read-out: Emax (%) PANC032
  Emax: 53.2%
PANC032; read-out: IC50 (nM) PANC032
  IC50: 1450 nM
KP2; read-out: Emax (%) KP2
  Emax: 20.7%
KP2; read-out: IC50 (nM) KP2
  IC50: 513 nM
ASPC1; read-out: Emax (%) ASPC1
  Emax: 50.4%
ASPC1; read-out: IC50 (nM) ASPC1
  IC50: 1460 nM
A549; read-out: Emax (%) A549
  Emax: 30.9%
A549; read-out: IC50 (nM) A549
  IC50: 1900 nM
NMC-G1; read-out: Emax (%) NMC-G1
  Emax: 36.6%
NMC-G1; read-out: IC50 (nM) NMC-G1
  IC50: 70 nM
HCT116; read-out: Emax (%) HCT116
  Emax: 26.9%
HCT116; read-out: IC50 (nM) HCT116
  IC50: 154 nM
MC116; read-out: Emax (%) MC116
  Emax: 0.32%
MC116; read-out: IC50 (nM) MC116
  IC50: 20.5 nM
NCI-H460; read-out: Emax (%) NCI-H460
  Emax: 34.4%
NCI-H460; read-out: IC50 (nM) NCI-H460
  IC50: 438 nM
NCI-H838; read-out: Emax (%) NCI-H838
  Emax: 32.2%
NCI-H838; read-out: IC50 (nM) NCI-H838
  IC50: 52 nM
LCLC-103H; read-out: Emax (%) LCLC-103H
  Emax: 24%
LCLC-103H; read-out: IC50 (nM) LCLC-103H
  IC50: 84.2 nM
SW1783; read-out: Emax (%) SW1783
  Emax: 22.2%
SW1783; read-out: IC50 (nM) SW1783
  IC50: 38.2 nM
MKN45; read-out: Emax (%) MKN45
  Emax: 19.4%
MKN45; read-out: IC50 (nM) MKN45
  IC50: 41.1 nM
Cl-1; read-out: Emax (%) Cl-1
  Emax: 10.7%
Cl-1; read-out: IC50 (nM) Cl-1
  IC50: 23.3 nM
HCC1315; read-out: Emax (%) HCC1315
  Emax: 41.2%
HCC1315; read-out: IC50 (nM) HCC1315
  IC50: 1060 nM
KARPAS; read-out: Emax (%) KARPAS
  Emax: 21%
KARPAS; read-out: IC50 (nM) KARPAS
  IC50: 2.18 nM
MDA-MB-231; read-out: Emax (%) MDA-MB-231
  Emax: 24.2%
MDA-MB-231; read-out: IC50 (nM) MDA-MB-231
  IC50: 146 nM
MDA-MB-436; read-out: Emax (%) MDA-MB-436
  Emax: 29.5%
MDA-MB-436; read-out: IC50 (nM) MDA-MB-436
  IC50: 39.6 nM
SBC-5; read-out: Emax (%) SBC-5
  Emax: 21.6%
SBC-5; read-out: IC50 (nM) SBC-5
  IC50: 841 nM
SKMEL28; read-out: Emax (%) SKMEL28
  Emax: 59%
SKMEL28; read-out: IC50 (nM) SKMEL28
  IC50: 474 nM
SUM149; read-out: Emax (%) SUM149
  Emax: 27.9%
SUM149; read-out: IC50 (nM) SUM149
  IC50: 131 nM
SUM149R; read-out: Emax (%) SUM149R
  Emax: 10.6%
SUM149R; read-out: IC50 (nM) SUM149R
  IC50: 18.5 nM
SUM159; read-out: Emax (%) SUM159
  Emax: 12%
SUM159; read-out: IC50 (nM) SUM159
  IC50: 32.5 nM
SUM159R; read-out: Emax (%) SUM159R
  Emax: 36%
SUM159R; read-out: IC50 (nM) SUM159R
  IC50: 92.4 nM
SUM185; read-out: Emax (%) SUM185
  Emax: 22.9%
SUM185; read-out: IC50 (nM) SUM185
  IC50: 1.44 nM
T47D; read-out: Emax (%) T47D
  Emax: 49.4%
T47D; read-out: IC50 (nM) T47D
  IC50: 7.46 nM
